In patent US9365583B2, “Substituted pyrazoles and uses thereof” (Genentech, Inc., priority 2013, dated 2016):

target: T1, N-terminally GST-tagged DLK (catalytic domain amino acid 1-520) (Homo sapiens, UniProt Q12852); assay: DLK TR-FRET inhibition assay; type: biochemical; settings: 5 nM GST-DLK, 40 nM HIS-MKK4 K131M substrate, 30 μM ATP, 60 minutes at ambient temperature
T1 construct: N-terminally GST-tagged DLK (catalytic domain amino acid 1-520); purchased Carna Bioscience
T1 sequence (Q12852 1-520): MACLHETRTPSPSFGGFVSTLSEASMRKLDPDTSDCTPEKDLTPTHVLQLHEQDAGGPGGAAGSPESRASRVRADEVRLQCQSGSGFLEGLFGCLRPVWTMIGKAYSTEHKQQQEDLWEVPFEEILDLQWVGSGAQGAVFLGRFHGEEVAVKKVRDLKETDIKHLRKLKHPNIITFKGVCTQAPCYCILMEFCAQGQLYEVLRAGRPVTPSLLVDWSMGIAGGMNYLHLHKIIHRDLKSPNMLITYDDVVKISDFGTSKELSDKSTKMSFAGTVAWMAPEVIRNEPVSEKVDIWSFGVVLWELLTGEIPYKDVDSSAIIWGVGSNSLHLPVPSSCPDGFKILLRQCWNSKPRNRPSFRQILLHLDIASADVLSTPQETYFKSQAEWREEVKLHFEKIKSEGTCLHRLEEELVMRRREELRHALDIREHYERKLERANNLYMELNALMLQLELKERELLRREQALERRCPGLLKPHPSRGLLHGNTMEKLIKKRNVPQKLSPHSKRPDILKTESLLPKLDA
Method in brief: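 Phosphorylated MKK4 was quantified by TR-FRET (Eu-labelled anti-phospho-MKK4, D2 anti-HIS; 3 h, 665 and 615 nm emission) after EDTA quench. Reactions held 5 nM GST-tagged DLK catalytic domain (1-520), 40 nM HIS-MKK4 K131M substrate, 30 μM ATP and compound (3-fold series from 20 uM), 60 min, room temperature, pH 7.5.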

Row | Ki | Compound
1 | 3.3 nM | CC(C)n1nc(-c2cnc(N)c(C(F)(F)F)c2)cc1[C@H]1[C@@H]2C[C@H](N3CCOC[C@H]3C)C[C@@H]21 [compound 45, 5-(1-isopropyl-5-((1R,3r,5S,6R)-3-((R)-3-methylmorpholino)bicyclo[3.1.0]hexan-6-yl)-1H-pyrazol-3-yl)-3-(trifluoromethyl) pyridin-2-amine]
2 | 3.8 nM | CC(C)n1nc(-c2cnc(N)c(OC(F)F)c2)cc1[C@H]1[C@@H]2C[C@@H](N3CC4(CN(C)CCO4)C3)C[C@@H]21 [compound 224, 3-(difluoromethoxy)-5-(1-isopropyl-5-((1R,3s,5S,6r)-3-(8-methyl-5-oxa-2,8-diazaspiro[3.5]nonan-2-yl)bicyclo[3.1.0]hexan-6-yl)-1H-pyrazol-3-yl)pyridin-2-amine]
3 | 2 nM | CC(C)n1nc(-c2cnc(N)c(C(F)(F)F)c2)cc1[C@H]1[C@@H]2C[C@@H](N3CCCN(C)CC3)C[C@@H]21 [compound 210, 5-(1-isopropyl-5-((1R,3s,5S,6r)-3-(4-methyl-1,4-diazepan-1-yl)bicyclo[3.1.0]hexan-6-yl)-1H-pyrazol-3-yl)-3-(trifluoromethyl) pyridin-2-amine]
4 | 1.22 nM | Nc1ncc(-c2cc([C@H]3[C@@H]4C[C@H](N5CCOCC5)C[C@@H]43)n(CC(F)F)n2)cc1OC(F)(F)F [compound 93, 5-(1-(2,2-difluoroethyl)-5-((1R,3r,5S,6r)-3-morpholinobicyclo [3.1.0]hexan-6-yl)-1H-pyrazol-3-yl)-3-(trifluoromethoxy)pyridin-2-amine]
5 | 18.3 nM | CC(C)n1nc(-c2cnc(N)c(OC(F)F)c2)cc1[C@H]1[C@@H]2CC(C)(O)C[C@@H]21 (stereo partly drawn) [compound 105, (1R,5S,6r)-6-(3-(6-amino-5-(difluoro-methoxy)pyridin-3-yl)-1-isopropyl-1H-pyrazol-5-yl)-3-methyl-bicyclo[3.1.0]hexan-3-ol]
6 | 6.6 nM | CC(C)n1nc(-c2cnc(N)c(OC(F)F)c2)cc1[C@H]1[C@@H]2CC(F)(F)C[C@@H]21 [compound 216, 5-(5-((1R,5S,6r)-3,3-difluorobicyclo [3.1.0]hexan-6-yl)-1-isopropyl-1H-pyrazol-3-yl)-3-(difluoro-methoxy)pyridin-2-amine]
7 | 4.2 nM | CC(C)n1nc(-c2cnc(N)c(OC(F)F)c2)cc1[C@H]1[C@@H]2C[C@@H](F)C[C@@H]21 [compound 217, 3-(difluoromethoxy)-5-(5-((1R,3s,5S,6r)-3-fluorobicyclo[3.1.0]hexan-6-yl)-1-isopropyl-1H-pyrazol-3-yl)pyridin-2-amine]
8 | 4.5 nM | CC(C)n1nc(-c2cnc(N)c(OC(F)F)c2)cc1[C@H]1[C@@H]2CC3(COC3)C[C@@H]21 [compound 170, 3-(difluoromethoxy)-5-(1-isopropyl-5-((1R,5S,6r)-spiro[bicyclo [3.1.0]hexane-3,3′-oxetan]-6-yl)-1H-pyrazol-3-yl)pyridin-2-amine]
9 | 1.6 nM | CO[C@@H]1CCN([C@H]2C[C@@H]3[C@H](C2)[C@H]3c2cc(-c3cnc(N)c(C(F)(F)F)c3)nn2C(C)C)C1 [compound 185, 5-(1-isopropyl-5-((1R,3r,5S,6R)-3-((R)-3-methoxypyrrolidin-1-yl)bicyclo[3.1.0]hexan-6-yl)-1H-pyrazol-3-yl)-3-(trifluoromethyl) pyridin-2-amine]
10 | 1.89 nM | CC(C)n1nc(-c2cnc(N)c(OC(F)(F)F)c2)cc1[C@H]1[C@@H]2C[C@@H](N3CCOC[C@H]3C)C[C@@H]21 [compound 13, 5-(1-isopropyl-5-((1R,3s,5S,6R)-3-((R)-3-mcthylmorpholino)bicyclo[3.1.0]hexan-6-yl)-1H-pyrazol-3-yl)-3-(trifluoromethoxy) pyridin-2-amine]
11 | 1.8 nM | Nc1ncc(-c2cc([C@H]3[C@@H]4C[C@H](N5CCCOCC5)C[C@@H]43)n(CC(F)F)n2)cc1OC(F)F [compound 233, 5-(5-((1R,3r,5S,6r)-3-(1,4-oxazepan-4-yl)bicyclo[3.1.0]hexan-6-yl)-1-(2,2-difluoroethyl)-1H-pyrazol-3-yl)-3-(difluoromethoxy) pyridin-2-amine]
12 | 2.4 nM | Nc1ncc(-c2cc([C@H]3[C@@H]4C[C@H](N5CCOCC5)C[C@@H]43)n(CC3CC3)n2)cc1OC(F)(F)F [compound 295, 5-(1-(cyclopropylmethyl)-5-((1R,3r,5S,6r)-3-morpholinobicyclo [3.1.0]hexan-6-yl)-1H-pyrazol-3-yl)-3-(trifluoromethoxy) pyridin-2-amine]
13 | 3.62 nM | CC(C)n1nc(-c2cnc(N)c(OC(F)(F)F)c2)cc1[C@H]1[C@@H]2C[C@H](N3C[C@@H]4C[C@H]3CO4)C[C@@H]21 [compound 71, 5-(5-((1R,3r,5S,6S)-3-((1S,4S)-2-oxa-5-azabicyclo[2.2.1]heptan-5-yl)bicyclo[3.1.0]hexan-6-yl)-1-isopropyl-1H-pyrazol-3-yl)-3-(trifluoromethoxy)pyridin-2-amine]
14 | 3.81 nM | CC(C)n1nc(-c2cnc(N)c(OC(F)(F)F)c2)cc1[C@H]1[C@@H]2C[C@@H](N(C)CC3COC3)C[C@@H]21 [compound 18, 5-(1-isopropyl-5-((1R,3s,5S,6r)-3-(methyl(oxetan-3-ylmethyl)amino)bicyclo[3.1.0]hexan-6-yl)-1H-pyrazol-3-yl)-3-(trifluoromethoxy) pyridin-2-amine]
15 | 2.6 nM | CC(C)n1nc(-c2cnc(N)c(OC(F)F)c2)cc1[C@H]1[C@@H]2C[C@@H](N3CC4(CCCO4)C3)C[C@@H]21 [compound 223, 5-(5-((1R,3s,5S,6r)-3-(5-oxa-2-azaspiro[3.4]octan-2-yl)bicyclo [3.1.0]hexan-6-yl)-1-isopropyl-1H-pyrazol-3-yl)-3-(difluoro-methoxy)pyridin-2-amine]
16 | 3.5 nM | Nc1ncc(-c2cc([C@H]3[C@@H]4C[C@@H](N5CCOCC5)C[C@@H]43)n(C3CCC3)n2)cc1OC(F)F [compound 131, 5-(1-cyclobutyl-5-((1R,3s,5S,6r)-3-morpholinobicyclo[3.1.0]hexan-6-yl)-1H-pyrazol-3-yl)-3-(difluoromethoxy)pyridin-2-amine]
17 | 3.6 nM | CC(C)n1nc(-c2cnc(N)c(C(F)(F)F)c2)cc1[C@H]1[C@@H]2C[C@@H](N3C[C@@H]4C[C@H]3CN4C)C[C@@H]21 [compound 207, 5-(1-isopropyl-5-((1R,3s,5S,6S)-3-((1S,4S)-5-methyl-2,5-diazabicyclo [2.2.1]heptan-2-yl)bicyclo [3.1.0]hexan-6-yl)-1H-pyrazol-3-yl)-3-(trifluoromethyl) pyridin-2-amine]
18 | 7.7 nM | CO[C@H]1CCCN([C@@H]2C[C@@H]3[C@H](C2)[C@H]3c2cc(-c3cnc(N)c(C(F)(F)F)c3)nn2C(C)C)C1 [compound 290, 5-(1-isopropyl-5-((1R,3s,5S,6S)-3-((S)-3-methoxypiperidin-1-yl)bicyclo[3.1.0]hexan-6-yl)-1H-pyrazol-3-yl)-3-(trifluoromethyl) pyridin-2-amine]
19 | 3.6 nM | CO[C@H]1CCN([C@@H]2C[C@@H]3[C@H](C2)[C@H]3c2cc(-c3cnc(N)c(C(F)(F)F)c3)nn2CC(F)F)C1 [compound 150, 5-(1-(2,2-difluoroethyl)-5-((1R,3s,5S,6S)-3-((S)-3-methoxy-pyrrolidin-1-yl)bicyclo[3.1.0]hexan-6-yl)-1H-pyrazol-3-yl)-3-(trifluoro-methyl)pyridin-2-amine]
